Common to all, as to experiment: NCI tumour cell line growth inhibition, 48 h
For experiment [1], the system named is TK-10 renal.
Experiment [2] has as its system DU-145 prostate.
Experiment [3] concerns BT-549 breast.
In experiment [4] the test system is MCF7 breast.
Experiment [5] concerns SNB-19 CNS.

Each structure is given as a SMILES string.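 These data come from cells grown in 96-well plates and exposed to compound for 48 hours at five concentrations. GI50 is the concentration that inhibits growth by half. TGI denotes the concentration required for complete inhibition of growth.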

Take `CN(CC(=O)O)Cc1c[nH]c2ccccc12`: the TGI in experiment [1], in experiment [2], in experiment [3], in experiment [4] and in experiment [5] was greater than 100 µM in each case.

For `COc1cc(/C=C/C(=O)c2ccc(SC)cc2)cc(OC)c1OC`, the GI50 in experiment [1] was 18 µM; in experiment [2] it was 12.8 µM; in experiment [3] it was 10.1 µM; in experiment [4], 5.22 µM; in experiment [5] it was 12.6 µM. For the same molecule, the TGI in experiment [1] stood at 33.5 µM; in experiment [2], 26.4 µM; in experiment [3], 24.6 µM; in experiment [4], 24.1 µM; in experiment [5] it was 26.4 µM.

For the molecule `COc1ccc(S(=O)(=O)Nc2c(/C=C\c3cc(OC)c(OC)c(OC)c3)ccc(OC)c2O)cc1OC`, the TGI in experiment [1], in experiment [2], in experiment [4] and in experiment [5] was greater than 100 µM each time. Besides, the GI50 in experiment [2] is 0.388 µM; in experiment [3] it was 0.256 µM; in experiment [4] it was 0.0405 µM; in experiment [5], 0.506 µM.

Turning to `COc1ccc(/C=N/C2=C(C#N)C(c3ccccc3)c3ccc4ccccc4c3O2)cc1` (centres undefined), the GI50 in experiment [1] was 26 µM; in experiment [2], 0.428 µM; in experiment [3] it was 0.793 µM; in experiment [4] it was 0.425 µM; in experiment [5], 0.54 µM. Besides, the TGI in experiment [1], in experiment [2], in experiment [3], in experiment [4] and in experiment [5] was greater than 100 µM throughout.

On to `Nc1c(S(=O)(=O)O)cc2c(c1Cl)C(=O)c1ccccc1C2=O`, for which the GI50 in experiment [1], in experiment [2], in experiment [3], in experiment [4] and in experiment [5] was greater than 100 µM each time. In addition, the TGI in experiment [1], in experiment [2], in experiment [3], in experiment [4] and in experiment [5] was greater than 100 µM in each case.

For the molecule `COC(=O)/C=C/c1cc(OC)c2c(c1)[C@@H](C(=O)OC)[C@H](c1ccc(OC)c(OC)c1)O2`, the GI50 in experiment [1] was 62.7 µM; in experiment [2], 2.8 µM; in experiment [3] it was 4.88 µM; in experiment [4] it was 0.388 µM; in experiment [5] it was 8.64 µM. Moreover, the TGI in experiment [1] was greater than 100 µM; in experiment [2], greater than 100 µM; in experiment [3] it was greater than 100 µM; in experiment [4], 14.2 µM; in experiment [5] it was greater than 100 µM.

With `COc1ccc(-c2nn(C(=O)c3cc(OC)c(OC)c(OC)c3)c3cc(N)ccc23)cc1`, the GI50 in experiment [1] is 6.09 µM; in experiment [2], less than 0.013 µM; in experiment [3], less than 0.0175 µM; in experiment [4], 0.0226 µM; in experiment [5] it was less than 0.0171 µM. Further, the TGI in experiment [1] is 27.4 µM; in experiment [2], 0.345 µM; in experiment [3], 9.56 µM; in experiment [4], 2.19 µM; in experiment [5], greater than 100 µM.

`COc1cc(C2C(Cl)C(=O)N2NC(=O)c2ccccc2O)cc(OC)c1OC` (centres undefined): the TGI in experiment [1] is greater than 10 µM; in experiment [2], 1.91 µM; in experiment [3], greater than 10 µM; in experiment [4], 7.36 µM; in experiment [5] it was greater than 10 µM.

For `CCCCCCOc1ccc(/C=N/Nc2cc(C)nc3ccc(Br)cc23)cc1`, the GI50 in experiment [1] was 1.93 µM; in experiment [2], 1.92 µM; in experiment [3] it was 1.91 µM; in experiment [4], 1.64 µM; in experiment [5], 1.83 µM. Also, the TGI in experiment [1] was found to be 3.36 µM; in experiment [2], 3.7 µM; in experiment [3], 3.91 µM; in experiment [4], 3.35 µM; in experiment [5], 3.43 µM.

With `c1ccc(Oc2cnc3ccccc3n2)cc1`, the GI50 in experiment [1] is 53.9 µM; in experiment [2], greater than 100 µM; in experiment [3], 12 µM; in experiment [4], greater than 100 µM; in experiment [5], greater than 100 µM. Besides, the TGI in experiment [1] was greater than 100 µM; in experiment [2], greater than 100 µM; in experiment [3] it was 68.3 µM; in experiment [4], greater than 100 µM; in experiment [5] it was greater than 100 µM.

With `COC(=O)c1cccc(COc2ccc([N+](=O)[O-])cc2Cl)c1`, the TGI in experiment [1], in experiment [2], in experiment [3], in experiment [4] and in experiment [5] was greater than 100 µM in each case.

Take `COc1ccccc1NC(=O)C(=O)C(C#N)CC(C)(C)C=O` (centres undefined): the TGI in experiment [1], in experiment [3] and in experiment [4] was greater than 100 µM throughout.

`COc1ccc2nc3c(cc2c1)C(=O)CC(C(F)(F)F)C3` (centres undefined): the GI50 in experiment [1] is greater than 84.1 µM; in experiment [2], 0.714 µM; in experiment [3], 3.1 µM; in experiment [4], 3.33 µM; in experiment [5], 3.61 µM. Also, the TGI in experiment [1], in experiment [2], in experiment [3], in experiment [4] and in experiment [5] was greater than 100 µM throughout.

Take `CC(=O)SC(C[N+](=O)[O-])c1ccccc1` (centres undefined): the TGI in experiment [1] is 23.6 µM; in experiment [2], greater than 46.7 µM; in experiment [3] it was 5.19 µM; in experiment [4], 4.35 µM; in experiment [5], 30.9 µM.

In the case of `Cc1nc(N(C)C)nc(-c2cccc(-c3ccn(CCN(C)C)n3)c2)c1C`, the GI50 in experiment [1], in experiment [2], in experiment [3] and in experiment [4] was greater than 20 µM throughout. Besides, the TGI in experiment [1], in experiment [2], in experiment [3] and in experiment [4] was greater than 20 µM each time.

On to `O=C(O)c1cccc(F)c1C(=O)c1ccc2ccccc2c1`, for which the TGI in experiment [1], in experiment [3], in experiment [4] and in experiment [5] was greater than 100 µM each time.

Consider `OC(c1cc2c(Cl)cc(Cl)cc2c2cc(C(F)(F)F)ccc12)C1CCCCN1` (centres undefined), for which, in experiment [1], the GI50 is 2 µM and the TGI amounted to 3.63 µM. In addition, in experiment [2], the GI50 is 2 µM and the TGI amounted to 3.55 µM.

As for `COc1ccc2c(c1)cn1c3ccc(OC)cc3[nH]c(=O)c21`, the GI50 in experiment [1] is 1.17 µM; in experiment [2] it was less than 0.0217 µM; in experiment [3] it was 0.0407 µM; in experiment [5], less than 0.0405 µM. Besides, the figures for the TGI in experiment [1], in experiment [3] and in experiment [5] were 2.44 µM, 1.17 µM and 7.36 µM, respectively.

Values taken from PubChem BioAssay (NCI).
